Assay results from paper PMC8616928, “Versatile selective evolutionary pressure using synthetic defect in universal metabolism” (Nature Communications, 2021).
Numbering of substitutions follows the chain as printed. In names and notes the source's numbering stands.

Key:
MsIRED [1] = target: T1, MsIRED (Myxococcus stipitatus, UniProt L7U9F5, N32D/R33V/T34R/K37R); test: NADH absorbance, initial rates, Michaelis-Menten with substrate inhibition; type: biochemical; conditions: NADH saturating, pH 7.4, 37 °C; substrate inhibition constant
T1 construct: gene MYSTI_01767

MsIRED [2] = target: T2, MsIRED (Myxococcus stipitatus, UniProt L7U9F5, N32E/R33Y/T34E/K37R/L67I/T71V); test: as above; type: biochemical; conditions: NADH saturating, pH 7.4, 37 °C; substrate inhibition constant
T2 construct: gene MYSTI_01767
T2 sequence (L7U9F5 entry or part of it N32E/R33Y/T34E/K37R/L67I/T71V): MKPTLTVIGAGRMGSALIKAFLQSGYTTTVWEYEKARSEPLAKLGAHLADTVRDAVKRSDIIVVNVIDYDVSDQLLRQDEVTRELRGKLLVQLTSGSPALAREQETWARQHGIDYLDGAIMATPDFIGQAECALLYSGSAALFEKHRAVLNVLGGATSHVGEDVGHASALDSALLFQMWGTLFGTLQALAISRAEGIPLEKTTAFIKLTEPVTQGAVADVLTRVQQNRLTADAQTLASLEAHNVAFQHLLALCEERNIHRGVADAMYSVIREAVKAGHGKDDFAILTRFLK

TADH = target: T3, TADH (Thermus sp. ATN1, UniProt B2ZRE3); test: anaerobic growth rescue of E. coli AL and 1H-NMR of broth; type: cell-based; conditions: whole cells, NADH regenerated by glycolysis
T3 construct: full length, untagged, expressed from pUC19 in E. coli strain AL
T3 sequence (B2ZRE3 1-347): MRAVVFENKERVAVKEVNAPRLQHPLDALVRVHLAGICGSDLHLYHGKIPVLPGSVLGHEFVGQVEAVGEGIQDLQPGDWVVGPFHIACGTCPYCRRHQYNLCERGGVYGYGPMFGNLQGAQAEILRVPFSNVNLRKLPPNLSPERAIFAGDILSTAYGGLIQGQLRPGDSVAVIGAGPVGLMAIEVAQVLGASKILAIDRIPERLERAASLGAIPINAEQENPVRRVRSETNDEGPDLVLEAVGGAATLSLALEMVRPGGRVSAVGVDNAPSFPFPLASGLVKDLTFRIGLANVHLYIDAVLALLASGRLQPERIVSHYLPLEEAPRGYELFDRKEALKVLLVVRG

CBADH = target: T4, CBADH (Clostridium beijerinckii, UniProt P25984); test: NAD(P)H absorbance, initial rates; type: biochemical; conditions: NADP+, pH 8.8, 37 °C
T4 construct: gene adh
T4 sequence (P25984 1-351): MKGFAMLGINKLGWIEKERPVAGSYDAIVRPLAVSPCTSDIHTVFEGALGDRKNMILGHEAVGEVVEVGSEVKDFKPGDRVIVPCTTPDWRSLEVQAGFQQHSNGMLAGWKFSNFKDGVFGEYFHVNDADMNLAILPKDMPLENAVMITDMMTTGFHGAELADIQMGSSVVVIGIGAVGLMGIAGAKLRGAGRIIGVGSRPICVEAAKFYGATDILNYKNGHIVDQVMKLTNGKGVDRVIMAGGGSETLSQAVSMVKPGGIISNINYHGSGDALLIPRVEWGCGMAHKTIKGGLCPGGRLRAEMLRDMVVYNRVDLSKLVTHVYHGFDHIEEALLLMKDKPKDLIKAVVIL

EntNfsB [3] = target: T5, EntNfsB (Enterobacter cloacae, UniProt Q01234); test: NADH absorbance, initial rates, anaerobic; type: biochemical; conditions: pH 7.4, 37 °C, activity too low for kinetic parameters
T5 construct: gene nfsB; full length, C-terminal His6 (pUC19), E. coli BL21(DE3), FMN holoprotein
T5 sequence (Q01234 1-217): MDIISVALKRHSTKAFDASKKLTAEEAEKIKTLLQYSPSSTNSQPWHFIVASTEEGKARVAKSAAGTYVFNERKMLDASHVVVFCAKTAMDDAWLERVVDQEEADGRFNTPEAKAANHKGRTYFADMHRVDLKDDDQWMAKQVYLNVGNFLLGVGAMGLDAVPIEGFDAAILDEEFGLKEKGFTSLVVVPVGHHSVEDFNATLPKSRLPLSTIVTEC

EntNfsB [4] = target: T6, EntNfsB (Enterobacter cloacae, UniProt Q01234, T41L/Y68L/F124L); conditions: pH 7.4, 37 °C, saturating cofactor, anaerobic
T6 construct: gene nfsB

BDHA = target: T7, BDHA (Bacillus subtilis, UniProt O34788); test: anaerobic growth rescue of E. coli AL and 1H-NMR of broth; type: cell-based; conditions: whole cells; endogenous acetoin reductase background
T7 construct: full length, untagged, expressed from pUC19 in E. coli strain AL
T7 sequence (O34788 1-346): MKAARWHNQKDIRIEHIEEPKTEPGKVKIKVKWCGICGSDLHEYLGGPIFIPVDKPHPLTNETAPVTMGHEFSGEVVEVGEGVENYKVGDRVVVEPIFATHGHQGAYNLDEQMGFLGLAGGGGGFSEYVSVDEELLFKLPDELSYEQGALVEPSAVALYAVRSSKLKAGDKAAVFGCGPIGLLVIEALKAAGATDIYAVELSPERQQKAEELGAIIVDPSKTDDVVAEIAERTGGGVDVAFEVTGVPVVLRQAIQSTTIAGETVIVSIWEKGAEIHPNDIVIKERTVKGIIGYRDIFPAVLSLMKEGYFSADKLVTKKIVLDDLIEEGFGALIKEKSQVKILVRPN

BUDC = target: T8, BUDC (Klebsiella pneumoniae, UniProt Q48436); test: as above; type: cell-based; conditions: whole cells; endogenous acetoin reductase background
T8 construct: full length, untagged, expressed from pUC19 in E. coli strain AL
T8 sequence (Q48436 whole entry): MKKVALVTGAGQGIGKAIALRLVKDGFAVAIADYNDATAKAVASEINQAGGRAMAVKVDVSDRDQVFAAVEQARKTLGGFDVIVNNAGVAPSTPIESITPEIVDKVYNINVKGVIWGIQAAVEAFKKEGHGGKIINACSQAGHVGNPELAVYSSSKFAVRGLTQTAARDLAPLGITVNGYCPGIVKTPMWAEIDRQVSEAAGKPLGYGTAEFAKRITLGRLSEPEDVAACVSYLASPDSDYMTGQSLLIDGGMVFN

[5] = substrate: O=C(O)c1ccc([N+](=O)[O-])cc1; test: NADH absorbance, initial rates, anaerobic, Michaelis-Menten fit; type: biochemical, Enterobacter cloacae; conditions: pH 7.4, 37 °C, saturating cofactor
[6] = substrate: CC1=NCCC1; test: NADH absorbance, initial rates, Michaelis-Menten with substrate inhibition; type: biochemical, Myxococcus stipitatus; conditions: NADH saturating, pH 7.4, 37 °C

Molecule: CC1=NCCC1 [2-methyl-1-pyrroline]
- Ki (MsIRED [1]): 11.42 mM
- Ki (MsIRED [2]): 4.94 mM

Molecule: CC1CCCC(=O)C1 (stereo not drawn) [3-methylcyclohexanone]
- anaerobic growth rescue of E. coli AL and 1H-NMR of broth (TADH): acetoin for BDHA and BUDC, and cyclohexanone or 3-methylcyclohexanone for TADH

Molecule: CC(C)O [isopropanol]
- NAD(P)H absorbance, initial rates (CBADH): Unlike the parent enzyme CBADHWT, purified CBADHS was unable to oxidize isopropanol using oxidized NADP

Molecule: O=C1CCCCC1 [cyclohexanone]
- anaerobic growth rescue of E. coli AL and 1H-NMR of broth (TADH): acetoin for BDHA and BUDC, and cyclohexanone or 3-methylcyclohexanone for TADH

Molecule: O=[N+]([O-])c1ccc(CO)cc1 [4-nitrobenzyl alcohol]
- NADH absorbance, initial rates, anaerobic (EntNfsB [3]): it was able to reduce 4-NBA and 4-NBALC but not 2-NBA
- Km (EntNfsB [4]): 1110 µM

Molecule: CC(=O)C(C)O (stereo not drawn) [acetoin]
- anaerobic growth rescue of E. coli AL and 1H-NMR of broth (BDHA): acetoin for BDHA and BUDC, and cyclohexanone or 3-methylcyclohexanone for TADH
- anaerobic growth rescue of E. coli AL and 1H-NMR of broth (BUDC): acetoin for BDHA and BUDC, and cyclohexanone or 3-methylcyclohexanone for TADH

B1: EntNfsB (Enterobacter cloacae) (protein)
chain: T5 sequence (Q01234 1-217)
notes: full length, C-terminal His6 (pUC19), E. coli BL21(DE3), FMN holoprotein
- Km [5]: 141 ± 22 µM
- kcat [5]: 0.762 ± 0.0383 s⁻¹

B2: MsIRED (Myxococcus stipitatus DSM 14675; K37R/N32D/R33V/T34R) (protein)
chain: MKPTLTVIGAGRMGSALIKAFLQSGYTTTVWDVRKARSEPLAKLGAHLADTVRDAVKRSDIIVVNVLDYDTSDQLLRQDEVTRELRGKLLVQLTSGSPALAREQETWARQHGIDYLDGAIMATPDFIGQAECALLYSGSAALFEKHRAVLNVLGGATSHVGEDVGHASALDSALLFQMWGTLFGTLQALAISRAEGIPLEKTTAFIKLTEPVTQGAVADVLTRVQQNRLTADAQTLASLEAHNVAFQHLLALCEERNIHRGVADAMYSVIREAVKAGHGKDDFAILTRFLK
- Km [6]: 19570 µM
- kcat [6]: 1.3 s⁻¹

B3: MsIRED (Myxococcus stipitatus DSM 14675; K37R/L67I/N32E/R33Y/T34E/T71V) (protein)
chain: B2 chain with D32E, V33Y, R34E, L67I, T71V
- Km [6]: 34060 µM
- kcat [6]: 2.6862 s⁻¹
